# From US20260226076A1, “FUSED MULTICYCLIC COMPOUNDS AND THEIR USE AS PARP1 INHIBITORS” (LAEKNA THERAPEUTICS SHANGHAI CO., LTD., priority 2022, published 2026)
# Like-named read-outs stand apart in the source and are kept apart here.
# Columns and labels:
# [1] = system: DLD1 BRCA2−/− cells; assay: Cell proliferation assay (DLD1 BRCA2−/−); format: cell-based; details: at least 7 days, Cell-Titer Glo, read-out: DLD1 BRCA2−/− anti-proliferation assay
# Method: (§1) For PARPi sensitivity, exponentially growing MDA-MB-436 and DLD1 BRCA2^−/− cells were seed in 96 or 384-well plates at very low density with the goal of not splitting for at least 7 days (typically 0.3k-1.2k cells/well). Cells were plated on […] and treated with DMSO or increasing concentrations of PARP1 inhibitors on Day 0. At the end of the experiment, cell viability was estimated using Cell-Titer Glo (Promega).
# [2] = system: MDA-MB-436 cells; assay: Cell proliferation assay (MDA-MB-436); format: cell-based; details: at least 7 days, Cell-Titer Glo, read-out: MDA-MB-436 anti-proliferation assay
# Method: as §1
# [3] = biological target: PARP1 (Homo sapiens, UniProt P09874); assay: PARP1-DNA enzymatic trapping assay; format: biochemical; details: 10 nM PARP1, 5 nM DNA probe, 2 mM NAD+, fluorescence polarization read at 30 minutes
# Method: Enzymatic trapping assay is to measure the dissociation process of PARP1 from fluorescein-labeled DNA during the enzymatic activity. Assay was conducted at a total 10 μL of reaction volume, including 10 nM PARP1 and 5 nM DNA probe in the binding buffer (50 mM Tris-HCl pH 8.0, 50 mM NaCl, 1 mM MgCl2, 0.1 mM EDTA, and 0.01% IGEPAL), and was commenced by adding a final concentration of 2 mM NAD+ substrate.
# PARP1 Poly-ADP ribosylation (PARylation) inhibitory assay was conducted with compounds dissolved in DMSO at a starting concentration of 5 μM. Dissolved compounds were added to 384-well microplate and premixed with PARPI enzyme and DNA probe for 20 minutes incubation. Enzymatic reactions were started by adding NAD+ to mixture, and each well was read at 30 minutes by microplate reader (VICTOR Nivo®, PerkinElmer) to detect the fluorescence polarization signal at 480 nm excitation/530 nm dual emission.
# All measured IC50 values were calculated using four parameters dose-response inhibition model in GraphPad Prism 8.0.2 (La Jolla, California, USA, www.graphpad.com).
# [4] = Homo sapiens, MDA-MB-436, 168 h
# Sequence of PARP1 (P09874 whole entry): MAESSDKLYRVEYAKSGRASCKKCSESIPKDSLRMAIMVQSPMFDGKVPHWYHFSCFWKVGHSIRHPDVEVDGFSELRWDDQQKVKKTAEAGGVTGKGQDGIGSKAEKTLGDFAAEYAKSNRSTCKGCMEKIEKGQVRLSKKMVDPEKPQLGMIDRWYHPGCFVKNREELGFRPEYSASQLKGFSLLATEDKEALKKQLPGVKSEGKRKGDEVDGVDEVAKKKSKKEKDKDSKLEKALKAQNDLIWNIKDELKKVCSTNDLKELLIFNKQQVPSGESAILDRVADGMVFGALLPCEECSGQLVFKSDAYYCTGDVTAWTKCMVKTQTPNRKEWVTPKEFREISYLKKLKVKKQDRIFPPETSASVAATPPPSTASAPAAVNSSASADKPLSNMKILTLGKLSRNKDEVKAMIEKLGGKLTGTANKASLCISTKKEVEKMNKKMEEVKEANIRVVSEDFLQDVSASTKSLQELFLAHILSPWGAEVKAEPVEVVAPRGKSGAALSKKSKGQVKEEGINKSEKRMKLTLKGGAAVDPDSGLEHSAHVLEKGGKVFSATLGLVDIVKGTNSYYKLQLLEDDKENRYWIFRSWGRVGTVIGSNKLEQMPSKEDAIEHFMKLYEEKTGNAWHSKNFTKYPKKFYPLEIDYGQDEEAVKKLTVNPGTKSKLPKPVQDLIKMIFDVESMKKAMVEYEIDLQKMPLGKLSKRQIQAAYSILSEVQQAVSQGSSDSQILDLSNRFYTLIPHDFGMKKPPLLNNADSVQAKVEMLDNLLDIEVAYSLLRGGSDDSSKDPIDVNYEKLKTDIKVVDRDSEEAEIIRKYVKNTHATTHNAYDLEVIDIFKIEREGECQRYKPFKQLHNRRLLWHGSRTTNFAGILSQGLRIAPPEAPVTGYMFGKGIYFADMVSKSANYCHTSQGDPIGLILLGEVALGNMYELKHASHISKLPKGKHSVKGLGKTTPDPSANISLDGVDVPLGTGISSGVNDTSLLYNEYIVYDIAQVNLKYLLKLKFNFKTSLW
compound,measurement,setting,value
CCC1Oc2ncc(CN3C[C@H]4CN(c5ccc(C(=O)NC)nc5)C[C@@H]4C3)cc2NC1=O (mixture of isomers) [Compound 5],IC50,[1],18.6 nM
same,IC50,[2],39.9 nM
same,IC50,[3],111 nM
CCC1Oc2ncc(CN3C[C@H]4CN(c5ccc(C(=O)NC)nc5F)C[C@@H]4C3)cc2NC1=O (mixture of isomers) [Compound 8],IC50,"[1]; Homo sapiens, DLD-1, 168 h",13.9 nM
same,IC50,[2]; [4],5.13 nM
same,IC50,[3],47.3 nM
CCC1Oc2ncc(CN3C[C@H]4CN(c5ccc(C(=O)NC)nc5)C[C@@H]4C3)cc2NC1=O (mixture of isomers) [Compound 14],IC50,[1],5.59 nM
same,IC50,[2],9.85 nM
same,IC50,[3],33.1 nM
CCC1Oc2ncc(CN3C[C@H]4CN(c5ccc(C(=O)NC6CC6)nc5)C[C@@H]4C3)cc2NC1=O (mixture of isomers) [Compound 16],IC50,"[1]; Homo sapiens, DLD-1, 168 h",> 500 nM
same,IC50,[2]; [4],> 500 nM
same,IC50,[3],> 500 nM
CNC(=O)c1ccc(N2C[C@@H]3CN(Cc4ccc5c(c4F)NC(=O)C(C)O5)C[C@H]3C2)cn1 (mixture of isomers) [Compound 17],IC50,"[1]; Homo sapiens, DLD-1, 168 h",468 nM
same,IC50,[2]; [4],> 500 nM
same,IC50,[3],> 500 nM
CCC1Oc2ncc(CN3C[C@H]4CN(c5ccc(C(=O)NC6CC6)nc5F)C[C@@H]4C3)cc2NC1=O (mixture of isomers) [Compound 18],IC50,"[1]; Homo sapiens, DLD-1, 168 h",12.7 nM
same,IC50,[2]; [4],11.4 nM
same,IC50,[3],27.3 nM
CCc1cc2ncc(CN3C[C@H]4CN(c5ccc(C(=O)NC)nc5)C[C@@H]4C3)cc2[nH]c1=O (racemic) [Compound 2],IC50,[1],1.98 nM
same,IC50,[2],0.4 nM
same,IC50,[3],10.7 nM
CNC(=O)c1ccc(N2C[C@@H]3CN(Cc4ccc5nc(C)c(=O)[nH]c5c4F)C[C@H]3C2)c(F)n1 (racemic) [Compound 3],IC50,"[1]; Homo sapiens, DLD-1, 168 h",45.3 nM
same,IC50,[2]; [4],15.7 nM
same,IC50,[3],41.1 nM
CNC(=O)c1ccc(N2C[C@@H]3CN(Cc4ccc5nc(C)c(=O)[nH]c5c4F)C[C@H]3C2)cn1 (racemic) [Compound 6],IC50,"[1]; Homo sapiens, DLD-1, 168 h",49.3 nM
same,IC50,[2]; [4],76.1 nM
same,IC50,[3],262 nM
CNC(=O)c1ccc(N2C[C@@H]3CN(Cc4cnc5c(c4)NC(=O)[C@@H]4CCCN54)C[C@H]3C2)cn1 (racemic) [Compound 7],IC50,"[1]; Homo sapiens, DLD-1, 168 h",4.63 nM
same,IC50,[2]; [4],2.59 nM
same,IC50,[3],24.8 nM
CNC(=O)c1ccc(N2C[C@@H]3CN(Cc4cnc5c(c4)[nH]c(=O)n4cccc54)C[C@H]3C2)cn1 (racemic) [Compound 12],IC50,"[1]; Homo sapiens, DLD-1, 168 h",3.68 nM
same,IC50,[2]; [4],5.03 nM
same,IC50,[3],17.3 nM
CNC(=O)c1ccc(N2C[C@@H]3CN(Cc4ccc5c(c4)[nH]c(=O)n4ccnc54)C[C@H]3C2)cn1 (racemic) [Compound 13],IC50,"[1]; Homo sapiens, DLD-1, 168 h",10.6 nM
same,IC50,[2]; [4],31.6 nM
same,IC50,[3],46.3 nM
CCc1cc2ncc(CN3C[C@H]4CN(c5ccc(C(=O)NC)nc5F)C[C@@H]4C3)cc2[nH]c1=O (racemic) [Compound 19],IC50,[1],0.59 nM
same,IC50,[2],0.59 nM
same,IC50,[3],6.13 nM
Cc1cc2ncc(CN3C[C@H]4CN(c5ccc(C(=O)NC6CC6)nc5)C[C@@H]4C3)cc2[nH]c1=O (racemic) [Compound 20],IC50,"[1]; Homo sapiens, DLD-1, 168 h",4.12 nM
same,IC50,[2]; [4],3.47 nM
same,IC50,[3],16.6 nM
CNC(=O)c1ccc(N2C[C@@H]3CN(Cc4cnc5cc(C)c(=O)[nH]c5c4)C[C@H]3C2)c(F)n1 (racemic) [Compound 21],IC50,"[1]; Homo sapiens, DLD-1, 168 h",1.76 nM
same,IC50,[2]; [4],1.91 nM
same,IC50,[3],17.8 nM
CCc1cc2ncc(CN3C[C@H]4CN(c5ccc(C(=O)NCCOC)nc5)C[C@@H]4C3)cc2[nH]c1=O (racemic) [Compound 26],IC50,"[1]; Homo sapiens, DLD-1, 168 h",1.6 nM
same,IC50,[2]; [4],0.69 nM
same,IC50,[3],5.99 nM
CCc1cc2ncc(CN3C[C@@H]4CN(c5ccc(C(=O)NC)nc5)C[C@@H]4C3)cc2[nH]c1=O [Compound 1],IC50,"[1]; Homo sapiens, DLD-1, 168 h",> 500 nM
same,IC50,[2]; [4],410 nM
same,IC50,[3],42.9 nM
CCc1cc2ncc(CN3C[C@H]4CN(c5ccc(C(=O)NC)nc5)C[C@@H]4C3)cc2[nH]c1=O [Compound 9],IC50,"[1]; Homo sapiens, DLD-1, 168 h",1.29 nM
same,IC50,[2],1.76 nM
same,IC50,[3],10.8 nM
CNC(=O)c1ccc(N2C[C@H]3CN(Cc4ccc5nc(C)c(=O)[nH]c5c4F)C[C@@H]3C2)c(F)n1 [Compound 10],IC50,"[1]; Homo sapiens, DLD-1, 168 h",4.92 nM
same,IC50,[2]; [4],7.84 nM
same,IC50,[3],20.6 nM
CNC(=O)c1ccc(N2C[C@@H]3CN(Cc4ccc5nc(C)c(=O)[nH]c5c4F)C[C@H]3C2)c(F)n1 [Compound 11],IC50,"[1]; Homo sapiens, DLD-1, 168 h",> 500 nM
same,IC50,[2]; [4],> 500 nM
same,IC50,[3],323 nM
CNC(=O)c1ccc(N2C[C@H]3CN(Cc4cnc5c(c4)NC(=O)[C@@H]4CCCN54)C[C@@H]3C2)c(F)n1 [Compound 22],IC50,"[1]; Homo sapiens, DLD-1, 168 h",1.09 nM
same,IC50,[2]; [4],0.69 nM
same,IC50,[3],10.9 nM
CNC(=O)c1ccc(N2C[C@@H]3CN(Cc4cnc5c(c4)NC(=O)[C@@H]4CCCN54)C[C@H]3C2)c(F)n1 [Compound 23],IC50,"[1]; Homo sapiens, DLD-1, 168 h",34.9 nM
same,IC50,[2]; [4],20.2 nM
same,IC50,[3],31.1 nM
CNC(=O)c1ccc(N2C[C@@H]3CN(Cc4cnc5cc(C)c(=O)[nH]c5c4)C[C@H]3C2)c(C)n1 [Compound 24],IC50,"[1]; Homo sapiens, DLD-1, 168 h",371 nM
same,IC50,[2]; [4],407 nM
same,IC50,[3],> 500 nM
CNC(=O)c1ccc(N2C[C@H]3CN(Cc4cnc5cc(C)c(=O)[nH]c5c4)C[C@@H]3C2)c(C)n1 [Compound 25],IC50,"[1]; Homo sapiens, DLD-1, 168 h",7.49 nM
same,IC50,[2]; [4],5.06 nM
same,IC50,[3],20.5 nM
CCc1cc2ncc(CN3C[C@H]4CN(c5ccc(C(=O)NC)nc5F)C[C@@H]4C3)cc2[nH]c1=O [Compound 28],IC50,[1],5.02 nM
same,IC50,[2],3.93 nM
same,IC50,[3],9.73 nM
CNC(=O)c1ccc(N2C[C@H]3CN(Cc4cnc5cc(C)c(=O)[nH]c5c4)C[C@@H]3C2)c(F)n1 [Compound 29],IC50,"[1]; Homo sapiens, DLD-1, 168 h",0.87 nM
same,IC50,[2]; [4],0.59 nM
same,IC50,[3],10.9 nM
Cc1cc2ncc(CN3C[C@@H]4CN(c5ccc(C(=O)NC6CC6)nc5F)C[C@H]4C3)cc2[nH]c1=O [Compound 30],IC50,"[1]; Homo sapiens, DLD-1, 168 h",0.45 nM
same,IC50,[2]; [4],0.37 nM
same,IC50,[3],8.09 nM
CNC(=O)c1ccc(N2C[C@H]3CN(Cc4ccc5nc(C)c(=O)[nH]c5c4)C[C@@H]3C2)c(F)n1 [Compound 31],IC50,"[1]; Homo sapiens, DLD-1, 168 h",1.49 nM
same,IC50,[2]; [4],0.98 nM
same,IC50,[3],8.35 nM
CNC(=O)c1ccc(N2C[C@H]3CN(Cc4cnc5cc(OC)c(=O)[nH]c5c4)C[C@@H]3C2)c(F)n1 [Compound 33],IC50,"[1]; Homo sapiens, DLD-1, 168 h",4.13 nM
same,IC50,[2]; [4],2.48 nM
same,IC50,[3],7.81 nM
CCc1cc2ncc(CN3C[C@@H]4CN(c5ccc(C(=O)NCCOC)nc5F)C[C@H]4C3)cc2[nH]c1=O [Compound 34],IC50,"[1]; Homo sapiens, DLD-1, 168 h",1.09 nM
same,IC50,[2]; [4],0.78 nM
same,IC50,[3],10.5 nM
COCCNC(=O)c1ccc(N2C[C@H]3CN(Cc4cnc5cc(C)c(=O)[nH]c5c4)C[C@@H]3C2)c(F)n1 [Compound 35],IC50,"[1]; Homo sapiens, DLD-1, 168 h",4.14 nM
same,IC50,[2]; [4],3 nM
same,IC50,[3],23.7 nM
CNC(=O)c1ccc(N2C[C@H]3CN(Cc4cc5[nH]c(=O)c(C)cc5cn4)C[C@@H]3C2)c(F)n1 [Compound 36],IC50,"[1]; Homo sapiens, DLD-1, 168 h",1.51 nM
same,IC50,[2]; [4],2.08 nM
same,IC50,[3],8.44 nM
CCc1nc2ncc(CN3C[C@@H]4CN(c5ccc(C(=O)NC)nc5F)C[C@H]4C3)cc2[nH]c1=O [Compound 37],IC50,"[1]; Homo sapiens, DLD-1, 168 h",5.98 nM
same,IC50,[2]; [4],4.63 nM
same,IC50,[3],13.5 nM
CCc1cc2cnc(CN3C[C@@H]4CN(c5ccc(C(=O)NC)nc5)C[C@@H]4C3)cc2[nH]c1=O [Compound 39],IC50,"[1]; Homo sapiens, DLD-1, 168 h",1.22 nM
same,IC50,[2]; [4],1.39 nM
same,IC50,[3],9.74 nM
CNC(=O)c1ccc(N2C[C@H]3CN(Cc4cnc5c6c(c(=O)[nH]c5c4)CCC6)C[C@@H]3C2)cn1 [Compound 47],IC50,"[1]; Homo sapiens, DLD-1, 168 h",0.77 nM
same,IC50,[2]; [4],1.1 nM
same,IC50,[3],9.42 nM
O=C(N[C@@H]1CCOC1)c1ccc(N2C[C@H]3CN(Cc4cnc5c6c(c(=O)[nH]c5c4)CCC6)C[C@@H]3C2)c(F)n1 [Compound 50],IC50,"[1]; Homo sapiens, DLD-1, 168 h",4.04 nM
same,IC50,[2]; [4],1.05 nM
same,IC50,[3],7.86 nM
O=C(N[C@H]1CCOC1)c1ccc(N2C[C@H]3CN(Cc4cnc5c6c(c(=O)[nH]c5c4)CCC6)C[C@@H]3C2)c(F)n1 [Compound 51],IC50,"[1]; Homo sapiens, DLD-1, 168 h",2.96 nM
same,IC50,[2]; [4],0.7 nM
same,IC50,[3],7.36 nM
COCCNC(=O)c1ccc(N2C[C@H]3CN(Cc4cc5[nH]c(=O)c6c(c5cn4)CCC6)C[C@@H]3C2)c(F)n1 [Compound 55],IC50,"[1]; Homo sapiens, DLD-1, 168 h",4.66 nM
same,IC50,[2]; [4],1.24 nM
same,IC50,[3],6.96 nM
O=C(N[C@@H]1CCOC1)c1ccc(N2C[C@H]3CN(Cc4cc5[nH]c(=O)c6c(c5cn4)CCC6)C[C@@H]3C2)c(F)n1 [Compound 56],IC50,"[1]; Homo sapiens, DLD-1, 168 h",3.37 nM
same,IC50,[2]; [4],0.71 nM
same,IC50,[3],5.17 nM
O=C(NC1COC1)c1ccc(N2C[C@H]3CN(Cc4ccc5c6c(c(=O)[nH]c5c4)COCC6)C[C@@H]3C2)c(Cl)n1 [Compound 84],IC50,[3],411 nM
